Values after ≈ are worked out from the molar mass of the structure shown. Values joined by “and” are separate entries in the source; they are usually repeats but may differ in a detail not shown here. Equal entries are not always repeated. Marks after values point to notes of the source that are not given here.
What was measured:
[1] = system: HUVEC; assay: in vitro; settings: HUVEC (normal human cell)
From the text: (§1) The cancer cell growth inhibition test was primarily used to detect the effect of a candidate drug on cancer cell proliferation. The working principle involved therein is the abilityof viable cells to shift alamarBlue (Biosource, USA) from its originally non-fluorescent oxidized state to a reduced form (fluorescent, red) having fluorescence via metabolic reaction. According to the fluorescent data result generated by the alamarBlue reagent thus obtained, the proliferation of the viable cells and cell activity can be quantified for detection.
(§2) In this experiment, the assay concentrations of the candidate drug were set to be 0.01, 0.1, 1, 10, and 100 µg/ml, and the following cell lines were used: 6 human cancer cells MCF-7 (breast cancer), HT-29 (colon cancer), HL-60 (leukemia), HepG2 (liver cancer), A549 (lung cancer), and U937 (lymphoma cancer), and a normal human umbilicalvenalepithelialcell (HUVEC).

[2] = system: U937 (lymphoma cancer); assay: cells
From the text: as §1, §2

[3] = system: HT-29 (colon cancer); assay: cells
From the text: as §1, §2

[4] = system: A549 (lung cancer); assay: cells
From the text: as §1, §2

[5] = system: MCF-7 (breast cancer); assay: cells
From the text: as §1, §2

[6] = system: HL-60 (leukemia); assay: cells
From the text: as §1, §2

[7] = system: HepG2 (liver cancer); assay: cells
From the text: as §1, §2

[8] = system: Human breast cancer cells MCF-7 (ATCC HTB-22); assay: In vivo tumor growth inhibition, MCF-7 xenograft in SCID mice; settings: 2 mg/kg x 5, intraperitoneal, 4-day interval
Procedure: Mixture formulation TSB-9 was further subjected to an animal test, in which female mice (6-8 weeks old, weighing 20-22 grams) originally from C.B-17/Icr background and having Severe Combined Immune Deficiency (SCID) were used.
Human breast cancer cells MCF-7 (ATCC HTB-22) (1x10^7 cells/0.2 ml) were implanted subcutaneously into the dorsal side of the mice, and 50 µg/mouse of estradiol benzoate (Sigma, USA) was injected subcutaneously into the mice weekly as supplement for a total of 4 weeks. When the tumor growth reached ≥5 mm in diameter (that very day was denoted as day 1), tumor-bearing […] mice were randomly divided into 4 groups (6 mice in each group).
Mixture formulation TSB-9 was dissolved in 10%DMSO, and was administered orally to the mice every day at two dosages 40 mg/kg and 80 mg/kg, respectively, for a total of 21 consecutive days. […] This treatment group served as a positive control.
Measurements were taken once every 4 days during the experiment periods, and were recorded.

[9] = in vitro; settings: human
From the text: as §1, §2

[10] = Homo sapiens, HUVEC, 50% cell growth inhibition concentration
[11] = Homo sapiens, U-937, U937, 50% cell growth inhibition concentration
[12] = Homo sapiens, HT-29, HT-29, 50% cell growth inhibition concentration
[13] = Homo sapiens, A549, A549, 50% cell growth inhibition concentration
[14] = Homo sapiens, MCF7, MCF-7, 50% cell growth inhibition concentration
[15] = Homo sapiens, HL-60, HL-60, 50% cell growth inhibition concentration
[16] = Homo sapiens, HepG2, HepG2, 50% cell growth inhibition concentration

Which IC50 ([1]; positive control) does the source give for `CO[C@@]12[C@H](COC(N)=O)C3=C(C(=O)C(C)=C(N)C3=O)N1C[C@@H]1N[C@@H]12` [mitomycin, reference compound] here?
Its IC50 is 0.24 µM.

And the IC50 ([1]; positive control, listed as Mitomycin)?
The IC50 was 0.17 µM.

And the IC50 ([2]; Homo sapiens, U-937, U937, positive control)?
The IC50 was 0.069 µM.

What about the IC50 ([2]; U937, positive control) of the same compound?
The IC50 was 0.035 µM and 0.056 µM.

And the IC50 ([3]; HT-29, positive control)?
Its IC50 is 0.12 µM and 0.089 µM.

And the IC50 ([3]; Homo sapiens, HT-29, HT-29, positive control)?
The IC50 was 0.09 µM.

And the IC50 ([4]; A549, positive control)?
The IC50 was 0.062 µM and 0.061 µM.

And the IC50 ([4]; Homo sapiens, A549, A549, positive control)?
The IC50 was 0.068 µM.

And the IC50 ([5]; MCF-7, positive control)?
Its IC50 is 0.069 µM and 0.034 µM.

What about the IC50 ([6]; HL-60, positive control) of the same compound?
The IC50 was 0.047 µM and 0.027 µM.

And the IC50 ([6]; Homo sapiens, HL-60, HL-60, positive control)?
Its IC50 is 0.039 µM.

What about the IC50 ([7]; HepG2, positive control) of the same compound?
Its IC50 is 0.026 µM.

And the IC50 ([7]; HepG2, positive control, listed as Mitomycin)?
Its IC50 is 0.062 µM and 0.036 µM.

And the “Tumor growth (%T/C)” value ([8]; Day 1)?
Its value is 98%.

What about the “Tumor growth (%T/C)” value ([8]; Day 5) of the same compound?
The value was 31* %.

And the “Tumor growth (%T/C)” value ([8]; Day 9)?
Its value is 1* %.

What about the “Tumor growth (%T/C)” value ([8]; Day 13) of the same compound?
The value was -6* %.

And the “Tumor growth (%T/C)” value ([8]; Day 17)?
The value was -23* %.

What about the “Tumor growth (%T/C)” value ([8]; Day 21) of the same compound?
Its value is -36* %.

And the “Tumor growth (%T/C)” value ([8]; Day 25)?
Its value is -56* %.

What about the “Tumor growth (%T/C)” value ([8]; Day 29) of the same compound?
The value was -70* %.

Which IC50 [1, 10] does the source give for `CC(C)=CCC[C@]1(C)C=Cc2c(O)c3c(c(CC=C(C)C)c2O1)O[C@]12C(=C[C@@H]4C[C@H]1C(C)(C)O[C@@]2(C/C=C(/C)C(=O)O)C4=O)C3=O` [TSB-5, gambogic acid] here?
Its IC50 is 0.87 µg/mL.

What about the CC50 [9] of the same compound?
Its CC50 is 3.6 µg/mL (≈ 5.73 µM).

And the IC50 [2, 11]?
The IC50 was 0.65 µg/mL.

What about the CC50 ([2]; Homo sapiens, U-937, read-out: LC50) of the same compound?
The CC50 was 3.1 µg/mL (≈ 4.93 µM).

And the IC50 [3, 12]?
The IC50 was 4.5 µg/mL.

What about the CC50 ([3]; Homo sapiens, HT-29, read-out: LC50) of the same compound?
The CC50 was 7.1 µg/mL (≈ 11.3 µM).

What about the IC50 [4, 13] of the same compound?
The IC50 was 0.8 µg/mL.

And the CC50 ([4]; Homo sapiens, A549, read-out: LC50)?
The CC50 was 2.9 µg/mL (≈ 4.61 µM).

And the IC50 [5, 14]?
Its IC50 is 0.83 µg/mL.

What about the CC50 ([5]; Homo sapiens, MCF7, read-out: LC50) of the same compound?
The CC50 was 2.7 µg/mL (≈ 4.29 µM).

What about the IC50 [6, 15] of the same compound?
Its IC50 is 0.5 µg/mL.

And the CC50 ([6]; Homo sapiens, HL-60, read-out: LC50)?
The CC50 was 5.2 µg/mL (≈ 8.27 µM).

And the IC50 [7, 16]?
Its IC50 is 0.83 µg/mL.

What about the CC50 ([7]; Homo sapiens, HepG2, read-out: LC50) of the same compound?
The CC50 was 2.7 µg/mL (≈ 4.29 µM).

Which LC50 ([1]; 50% cell destroying lethal concentration) does the source give for `CC(C)=CCc1c2c(c(O)c3c1OC14C(=CC5CC1C(C)(C)OC4(CC=C(C)C)C5=O)C3=O)C=CC(C)(C)O2` (stereo not drawn) [TSB-8, desoxymorellin] here?
The LC50 was 40 µg/mL (≈ 75.4 µM).

And the IC50 [1, 10]?
Its IC50 is 2.8 µg/mL.

And the IC50 ([2]; Homo sapiens, U-937)?
The IC50 was 6.2 µg/mL.

What about the LC50 ([2]; U937, 50% cell destroying lethal concentration) of the same compound?
Its LC50 is greater than 100 µg/mL.

What about the LC50 ([3]; HT-29, 50% cell destroying lethal concentration) of the same compound?
The LC50 was 69 µg/mL (≈ 130 µM).

And the IC50 [3, 12]?
Its IC50 is 6.7 µg/mL.

What about the LC50 ([4]; A549, 50% cell destroying lethal concentration) of the same compound?
The LC50 was 56 µg/mL (≈ 106 µM).

And the IC50 [4, 13]?
The IC50 was 4.8 µg/mL.

What about the IC50 [5, 14] of the same compound?
Its IC50 is 5.3 µg/mL.

And the LC50 ([5]; MCF-7, 50% cell destroying lethal concentration)?
Its LC50 is 83 µg/mL (≈ 156 µM).

And the LC50 ([6]; HL-60, 50% cell destroying lethal concentration)?
The LC50 was greater than 100 µg/mL.

What about the IC50 [6, 15] of the same compound?
The IC50 was 6.5 µg/mL.

What about the LC50 ([7]; HepG2, 50% cell destroying lethal concentration) of the same compound?
The LC50 was 31 µg/mL (≈ 58.4 µM).

And the IC50 [7, 16]?
Its IC50 is 3.9 µg/mL.

With `CC(C)=CCc1c(O)cc(O)c2c(=O)c3cc4c(c(O)c3oc12)OC(C)(C)C=C4` [TSB-4, 7,9,12-trihydroxy-2,2-dimethyl-10-(3-methyl-but-2-enyl)-2H-pyrano[3,2-b]xanthen-6-one] as the compound, how does the IC50 [1, 10] read?
The IC50 was 11 µg/mL.

What about the CC50 [9] of the same compound?
The CC50 was 21 µg/mL (≈ 53.2 µM).

And the IC50 [2, 11]?
Its IC50 is 6.9 µg/mL.

And the IC50 [3, 12]?
The IC50 was 8.4 µg/mL.

What about the IC50 [4, 13] of the same compound?
The IC50 was 1.8 µg/mL.

What about the IC50 [5, 14] of the same compound?
Its IC50 is 10 µg/mL.

And the IC50 [6, 15]?
The IC50 was 7.7 µg/mL.

And the IC50 [7, 16]?
Its IC50 is 8.9 µg/mL.
